Values of other authors in patent US4650664A (Dr. Karl Thomae GmbH, priority 1982, dated 1987).

Settings: human

OCCN(CCO)c1nc(N2CCCCC2)c2nc(N(CCO)CCO)ncc2n1 [Mopidamol, 2,6-bis-(diethanolamino)-4-piperidinopyrimido[5,4-d]pyrimidine]
Excretion in the urine: only excreted in the urine to a very small extent
